Assay results: patent US7211600B2, “Methods of modulating c-kit tyrosine protein kinase function with indolinone compounds” (Sugen Inc., priority 1999, dated 2007)
Where two headings read alike, the source gives them in different places.

Key:
MO7E cells [1] = test: Apoptosis assay: activated caspase-3 by FACS; assay type: cell-based, human
Procedure: (§1) Samples were assayed at 24 and 48 hours. To measure activated caspase-3, samples were washed with PBS and permeabilized with ice-cold 70% ethanol. The cells were then stained with PE-conjugated polyclonal rabbit anti-active caspase-3 and analyzed by FACS. To measure cleaved PARP, samples were lysed and analyzed by western blotting with an anti-PARP antibody.

MO7E cells [2] = test: Apoptosis assay: cleaved PARP by western blotting; assay type: cell-based, human
Procedure: as §1

c-kit = c-kit (Homo sapiens, UniProt P10721); details: MO7E cells, 250 ng/ml rh-SCF 15 min, pre-treatment Compound Eight 2 hours, Compound Six 22 hours
Procedure: (§2) MO7E cells, a human myeloid leukemia cell line, were maintained in RPMI-1640 medium supplemented with 10% fetal calf serum and 10 ng/ml each IL-3 and GM-CSF.
MO7E cells were serum starved overnight in 0.1% serum. […] Cells were stimulated with 250 ng/ml rh-SCF for 15 minutes. Following stimulation, cells were lysed and immunoprecipitated with an anti-c-kit antibody. Phosphotyrosine and protein levels were determined by western blotting.

MO7E cells [3] = test: cells; details: Homo sapiens, 48 h, read-out: IC50 value for inhibition of proliferation
Procedure: as §2

Sequence of c-kit (P10721 26-976): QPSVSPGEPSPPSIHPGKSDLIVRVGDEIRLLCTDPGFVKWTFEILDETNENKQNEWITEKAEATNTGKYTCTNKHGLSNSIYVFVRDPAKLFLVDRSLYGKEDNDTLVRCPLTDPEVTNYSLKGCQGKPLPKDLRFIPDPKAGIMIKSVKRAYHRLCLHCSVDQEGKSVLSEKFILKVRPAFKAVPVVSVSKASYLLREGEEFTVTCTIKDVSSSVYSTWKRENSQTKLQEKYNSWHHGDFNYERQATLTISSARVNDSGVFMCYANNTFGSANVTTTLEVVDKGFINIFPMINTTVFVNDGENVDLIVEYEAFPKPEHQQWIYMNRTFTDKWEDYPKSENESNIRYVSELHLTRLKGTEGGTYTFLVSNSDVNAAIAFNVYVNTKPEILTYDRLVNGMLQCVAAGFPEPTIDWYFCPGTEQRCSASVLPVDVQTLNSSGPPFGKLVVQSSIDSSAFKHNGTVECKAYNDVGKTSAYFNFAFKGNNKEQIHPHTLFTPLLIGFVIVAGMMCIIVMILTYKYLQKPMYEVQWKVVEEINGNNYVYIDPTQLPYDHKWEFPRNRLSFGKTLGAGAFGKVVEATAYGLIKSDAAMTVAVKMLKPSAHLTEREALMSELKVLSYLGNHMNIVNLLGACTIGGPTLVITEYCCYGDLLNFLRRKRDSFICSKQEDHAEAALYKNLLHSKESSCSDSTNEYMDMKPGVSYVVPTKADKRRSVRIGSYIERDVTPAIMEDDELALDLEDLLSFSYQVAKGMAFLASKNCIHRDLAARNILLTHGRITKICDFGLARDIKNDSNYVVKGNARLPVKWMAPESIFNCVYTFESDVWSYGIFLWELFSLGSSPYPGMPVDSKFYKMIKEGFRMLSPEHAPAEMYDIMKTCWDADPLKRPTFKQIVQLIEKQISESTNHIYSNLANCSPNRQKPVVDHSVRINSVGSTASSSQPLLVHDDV

| inhibition of c-kit tyrosine phosphorylation (c-kit; 0.01 μM) | inhibition of c-kit tyrosine phosphorylation (c-kit; 0.1 μM) | inhibition of c-kit tyrosine phosphorylation (c-kit; 1 μM) | inhibition of c-kit tyrosine phosphorylation (c-kit; 10 μM) | Structure (SMILES) | effect on number of apoptotic cells (activated caspase-3) (MO7E cells [1]; 5 μM, 24 or 48 hours, +/- SCF stimulation) | effect on number of apoptotic cells (activated caspase-3) (MO7E cells [1]; 25 μM, 24 hours, +/- SCF stimulation) | increase in the number of apoptotic cells (activated caspase-3) (MO7E cells [1]; 25 μM, 48 hours, SCF stimulation, compared to untreated SCF stimulated cells) | effect on number of apoptotic cells (activated caspase-3) (MO7E cells [1]; 25 μM, 48 hours, absence of SCF stimulation) | increase in cleaved PARP (MO7E cells [2]; 5 μM, both timepoints (24 and 48 hours)) | increase in the amount of cleaved PARP (MO7E cells [2]; 25 μM, 48 hours) | change of the cleaved PARP effect with SCF stimulation (MO7E cells [2]; 25 μM, 48 hours, with SCF stimulation) | effect on number of apoptotic cells (activated caspase-3) (MO7E cells [1]; 5 μM, 24 hours, with or without SCF stimulation) | IC50 (MO7E cells [3]) [µM] |
| --- | --- | --- | --- | --- | --- | --- | --- | --- | --- | --- | --- | --- | --- |
|  |  |  |  | Cc1cc(C)c(/C=C2\C(=O)Nc3ccccc32)[nH]1 [Compound Eight] | measurable but smaller number of apoptotic cells | measurable but smaller number of apoptotic cells | approximately 50% | slight effect | very minimal increase | greatest increase | augmented slightly |  |  |
| no inhibition | no inhibition | partial inhibition | complete inhibition | Cc1[nH]c(/C=C2\C(=O)Nc3ccccc32)c(C)c1CCC(=O)O [Compound Six] |  |  |  |  |  |  |  | no effect | 5 to 7 |
